Laboratory results as given in PubChem BioAssay (NCI).
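Compound exposure: 48 hours, 5 concentrations, 96-well plates. GI50 marks 50% less growth. Definition used: TGI = concentration required for complete inhibition of growth.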

Tests used:
Assay in all cases: NCI anticancer screen, dose series, 48 h
RPMI-8226 leukemia = tested on: RPMI-8226 leukemia
HCT-15 colon = tested on: HCT-15 colon
OVCAR-3 ovarian = tested on: OVCAR-3 ovarian
HL-60(TB) leukemia = tested on: HL-60(TB) leukemia
HS 578T breast = tested on: HS 578T breast
MDA-MB-231 breast = tested on: MDA-MB-231 breast
NCI/ADR-RES ovarian = tested on: NCI/ADR-RES ovarian
IGROV1 ovarian = tested on: IGROV1 ovarian
SF-539 CNS = tested on: SF-539 CNS
MOLT-4 leukemia = tested on: MOLT-4 leukemia
OVCAR-5 ovarian = tested on: OVCAR-5 ovarian
MDA-MB-435 = tested on: MDA-MB-435
SNB-19 CNS = tested on: SNB-19 CNS
MALME-3M melanoma = tested on: MALME-3M melanoma
CAKI-1 renal = tested on: CAKI-1 renal
KM12 colon = tested on: KM12 colon
SF-268 CNS = tested on: SF-268 CNS
SW-620 colon = tested on: SW-620 colon
LOX IMVI melanoma = tested on: LOX IMVI melanoma
MCF7 breast = tested on: MCF7 breast
HOP-62 NSCLC = tested on: HOP-62 NSCLC
HT29 colon = tested on: HT29 colon
A549 NSCLC = tested on: A549 NSCLC
PC-3 prostate = tested on: PC-3 prostate
SR leukemia = tested on: SR leukemia
DU-145 prostate = tested on: DU-145 prostate
T-47D breast = tested on: T-47D breast
HCT-116 colon = tested on: HCT-116 colon
NCI-H460 lung = tested on: NCI-H460 lung
OVCAR-8 ovarian = tested on: OVCAR-8 ovarian
M14 melanoma = tested on: M14 melanoma
OVCAR-4 ovarian = tested on: OVCAR-4 ovarian
HCC-2998 colon = tested on: HCC-2998 colon
U251 CNS = tested on: U251 CNS
NCI-H226 lung = tested on: NCI-H226 lung
RXF 393 renal = tested on: RXF 393 renal
HOP-92 NSCLC = tested on: HOP-92 NSCLC
SF-295 CNS = tested on: SF-295 CNS
SK-MEL-28 melanoma = tested on: SK-MEL-28 melanoma
NCI-H23 lung = tested on: NCI-H23 lung
SNB-75 CNS = tested on: SNB-75 CNS
ACHN renal = tested on: ACHN renal
UO-31 renal = tested on: UO-31 renal
K-562 leukemia = tested on: K-562 leukemia
TK-10 renal = tested on: TK-10 renal
NCI-H522 lung = tested on: NCI-H522 lung
COLO 205 colon = tested on: COLO 205 colon
SK-MEL-5 melanoma = tested on: SK-MEL-5 melanoma
786-0 renal = tested on: 786-0 renal
SK-OV-3 ovarian = tested on: SK-OV-3 ovarian
CCRF-CEM leukemia = tested on: CCRF-CEM leukemia
EKVX NSCLC = tested on: EKVX NSCLC
A498 renal = tested on: A498 renal
SK-MEL-2 melanoma = tested on: SK-MEL-2 melanoma
SN12C renal = tested on: SN12C renal
UACC-257 melanoma = tested on: UACC-257 melanoma
BT-549 breast = tested on: BT-549 breast

## CCCCOc1ccc(S(=O)(=O)N2CCN(c3nc(C)cc(N4CCOCC4)n3)CC2)cc1
RPMI-8226 leukemia
  GI50: 2.64 µM
  TGI: > 100 µM
HCT-15 colon
  GI50: 2.09 µM
  TGI: > 100 µM
OVCAR-3 ovarian
  GI50: > 100 µM
  TGI: > 100 µM
HL-60(TB) leukemia
  GI50: 0.42 µM
  TGI: > 100 µM
HS 578T breast
  GI50: > 100 µM
  TGI: > 100 µM
MDA-MB-231 breast
  TGI: > 100 µM
NCI/ADR-RES ovarian
  GI50: 2.45 µM
  TGI: > 100 µM
IGROV1 ovarian
  GI50: 1.09 µM
  TGI: > 100 µM
SF-539 CNS
  GI50: > 100 µM
  TGI: > 100 µM
MOLT-4 leukemia
  GI50: 2.27 µM
  TGI: > 100 µM
OVCAR-5 ovarian
  GI50: > 100 µM
  TGI: > 100 µM
MDA-MB-435
  GI50: 1.45 µM
  TGI: > 100 µM
SNB-19 CNS
  GI50: > 100 µM
  TGI: > 100 µM
MALME-3M melanoma
  GI50: > 100 µM
  TGI: > 100 µM
CAKI-1 renal
  GI50: 2.11 µM
  TGI: > 100 µM
KM12 colon
  GI50: 3.12 µM
  TGI: > 100 µM
SF-268 CNS
  GI50: 2.32 µM
  TGI: > 100 µM
SW-620 colon
  GI50: 2.33 µM
  TGI: > 100 µM
LOX IMVI melanoma
  GI50: 0.294 µM
  TGI: 0.942 µM
MCF7 breast
  GI50: > 100 µM
  TGI: > 100 µM
HOP-62 NSCLC
  GI50: > 100 µM
  TGI: > 100 µM
HT29 colon
  GI50: 0.888 µM
  TGI: 6.23 µM
A549 NSCLC
  GI50: 3.85 µM
  TGI: > 100 µM
PC-3 prostate
  GI50: 4.54 µM
  TGI: > 100 µM
SR leukemia
  GI50: 5.46 µM
  TGI: > 100 µM
DU-145 prostate
  GI50: 1.01 µM
  TGI: > 100 µM
T-47D breast
  GI50: > 100 µM
  TGI: > 100 µM
HCT-116 colon
  GI50: 1.44 µM
  TGI: > 100 µM
NCI-H460 lung
  GI50: 1.67 µM
  TGI: > 100 µM

## CCCCNNC(=O)c1ccc(-c2cccc(F)c2F)cc1
RPMI-8226 leukemia
  GI50: 0.8 µM
  TGI: 7.88 µM
HCT-15 colon
  GI50: 3.08 µM
  TGI: 17 µM
OVCAR-8 ovarian
  GI50: 1.49 µM
  TGI: > 100 µM
M14 melanoma
  GI50: 2.93 µM
  TGI: 20.8 µM
HL-60(TB) leukemia
  GI50: 1.07 µM
  TGI: 16.1 µM
HS 578T breast
  GI50: 2.44 µM
  TGI: 82.4 µM
OVCAR-4 ovarian
  GI50: 4.03 µM
  TGI: > 100 µM
HCC-2998 colon
  GI50: 1.48 µM
  TGI: 4.11 µM
U251 CNS
  GI50: 2.58 µM
  TGI: 15.2 µM
MDA-MB-231 breast
  GI50: 5.49 µM
  TGI: 34.3 µM
NCI/ADR-RES ovarian
  GI50: 0.999 µM
  TGI: 6.67 µM
NCI-H226 lung
  GI50: 2.58 µM
  TGI: 17.1 µM
RXF 393 renal
  GI50: 1.31 µM
  TGI: 3.67 µM
IGROV1 ovarian
  GI50: 2.02 µM
  TGI: 11.1 µM
SF-539 CNS
  GI50: 3.19 µM
  TGI: 65.6 µM
MOLT-4 leukemia
  GI50: 2.49 µM
  TGI: > 100 µM
HOP-92 NSCLC
  GI50: 1.04 µM
  TGI: 5.67 µM
SF-295 CNS
  GI50: 2 µM
  TGI: 4.78 µM
SK-MEL-28 melanoma
  GI50: 2.75 µM
  TGI: 63.7 µM
OVCAR-5 ovarian
  GI50: 2.02 µM
  TGI: 16.7 µM
NCI-H23 lung
  GI50: 2.39 µM
  TGI: 18.2 µM
MDA-MB-435
  GI50: 2.23 µM
  TGI: 8.25 µM
SNB-19 CNS
  GI50: 3.23 µM
  TGI: 19.8 µM
SNB-75 CNS
  GI50: 0.894 µM
  TGI: 8.29 µM
MALME-3M melanoma
  GI50: 0.613 µM
  TGI: 5.28 µM
ACHN renal
  GI50: 2.3 µM
  TGI: 7.06 µM
CAKI-1 renal
  GI50: 2.76 µM
  TGI: 6.02 µM
UO-31 renal
  GI50: 1.78 µM
  TGI: 7.25 µM
KM12 colon
  GI50: 4.04 µM
  TGI: 16.1 µM
K-562 leukemia
  GI50: 1.29 µM
  TGI: > 100 µM
SF-268 CNS
  GI50: 4.26 µM
  TGI: 18.7 µM
TK-10 renal
  GI50: 0.959 µM
  TGI: 7.9 µM
NCI-H522 lung
  GI50: 2.3 µM
  TGI: 20.7 µM
SW-620 colon
  GI50: 2.92 µM
  TGI: 12.5 µM
COLO 205 colon
  GI50: 1.82 µM
  TGI: 5.56 µM
SK-MEL-5 melanoma
  GI50: 1.8 µM
  TGI: 3.71 µM
786-0 renal
  GI50: 3.75 µM
  TGI: 18.9 µM
SK-OV-3 ovarian
  GI50: 4.12 µM
  TGI: 42.5 µM
CCRF-CEM leukemia
  GI50: 3.08 µM
  TGI: > 100 µM
EKVX NSCLC
  GI50: 3.32 µM
  TGI: 56.3 µM
A498 renal
  GI50: 1.04 µM
  TGI: 2.92 µM
SK-MEL-2 melanoma
  GI50: 3.1 µM
  TGI: 53.6 µM
SN12C renal
  GI50: 4.29 µM
  TGI: 79.9 µM
UACC-257 melanoma
  GI50: 1.39 µM
  TGI: 31.3 µM
MCF7 breast
  GI50: 0.776 µM
  TGI: 17.5 µM
BT-549 breast
  GI50: 5.11 µM
  TGI: > 100 µM
HOP-62 NSCLC
  GI50: 3.09 µM
  TGI: > 100 µM
HT29 colon
  GI50: 2.58 µM
  TGI: > 100 µM
A549 NSCLC
  GI50: 3.36 µM
  TGI: 18.4 µM
PC-3 prostate
  GI50: 3.56 µM
  TGI: 27.4 µM
SR leukemia
  GI50: 1.77 µM
  TGI: 57.3 µM
DU-145 prostate
  GI50: 2.43 µM
  TGI: 43.8 µM
T-47D breast
  GI50: 1.14 µM
  TGI: > 100 µM
HCT-116 colon
  GI50: 2.57 µM
  TGI: 11.4 µM
NCI-H460 lung
  GI50: 2.71 µM
  TGI: 21.3 µM
